Test results taken from ChEMBL document CHEMBL2384940, “Discovery of (R)-(2-fluoro-4-((-4-methoxyphenyl)ethynyl)phenyl) (3-hydroxypiperidin-1-yl)methanone (ML337), an mGlu3 selective and CNS penetrant negative allosteric modulator (NAM)” (J Med Chem, 2013).
Values after ≈ are worked out from the molar mass of the structure shown. Active and inactive are the calls of the source. The calls are words filed in the database; no cut-off is given here.

Key:
[1] = target: Metabotropic glutamate receptor 3 (Rattus norvegicus, UniProt P31422); test: Negative allosteric modulation of rat mGlu3 receptor transfected in human TREX cells assessed as inhibition of glutamate-induced calcium mobilization after 2.5 mins; assay type: functional, cell-based
Chain of Metabotropic glutamate receptor 3 (P31422 whole entry): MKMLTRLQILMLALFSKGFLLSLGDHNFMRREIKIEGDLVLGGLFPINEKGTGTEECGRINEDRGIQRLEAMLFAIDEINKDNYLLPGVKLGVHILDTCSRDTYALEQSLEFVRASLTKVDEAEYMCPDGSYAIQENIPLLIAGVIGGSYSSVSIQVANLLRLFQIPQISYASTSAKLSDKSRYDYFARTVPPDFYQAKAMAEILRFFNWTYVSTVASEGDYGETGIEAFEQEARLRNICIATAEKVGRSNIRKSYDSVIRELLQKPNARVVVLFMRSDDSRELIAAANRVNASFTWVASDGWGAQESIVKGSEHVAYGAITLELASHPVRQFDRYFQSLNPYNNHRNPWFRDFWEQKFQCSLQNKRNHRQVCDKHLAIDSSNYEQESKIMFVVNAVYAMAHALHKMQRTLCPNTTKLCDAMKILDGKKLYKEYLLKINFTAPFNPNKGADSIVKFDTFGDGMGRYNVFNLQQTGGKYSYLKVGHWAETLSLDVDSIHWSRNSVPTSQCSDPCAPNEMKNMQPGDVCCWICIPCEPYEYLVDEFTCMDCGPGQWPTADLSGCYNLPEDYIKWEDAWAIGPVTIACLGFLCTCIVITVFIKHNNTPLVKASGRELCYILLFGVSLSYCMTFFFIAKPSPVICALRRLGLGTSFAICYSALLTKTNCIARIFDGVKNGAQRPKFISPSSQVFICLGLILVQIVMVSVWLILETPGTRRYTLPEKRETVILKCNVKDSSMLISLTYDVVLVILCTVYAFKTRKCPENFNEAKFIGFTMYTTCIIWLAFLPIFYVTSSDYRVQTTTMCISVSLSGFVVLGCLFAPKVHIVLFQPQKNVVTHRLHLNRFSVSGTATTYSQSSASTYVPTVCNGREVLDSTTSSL

[2] = target: Metabotropic glutamate receptor 2 (Rattus norvegicus, UniProt P31421); test: Negative allosteric modulation of rat mGlu2 receptor transfected in HEK293 cells assessed as inhibition of glutamate-induced calcium mobilization after 2.5 mins; assay type: functional, cell-based
Chain of Metabotropic glutamate receptor 2 (P31421 whole entry): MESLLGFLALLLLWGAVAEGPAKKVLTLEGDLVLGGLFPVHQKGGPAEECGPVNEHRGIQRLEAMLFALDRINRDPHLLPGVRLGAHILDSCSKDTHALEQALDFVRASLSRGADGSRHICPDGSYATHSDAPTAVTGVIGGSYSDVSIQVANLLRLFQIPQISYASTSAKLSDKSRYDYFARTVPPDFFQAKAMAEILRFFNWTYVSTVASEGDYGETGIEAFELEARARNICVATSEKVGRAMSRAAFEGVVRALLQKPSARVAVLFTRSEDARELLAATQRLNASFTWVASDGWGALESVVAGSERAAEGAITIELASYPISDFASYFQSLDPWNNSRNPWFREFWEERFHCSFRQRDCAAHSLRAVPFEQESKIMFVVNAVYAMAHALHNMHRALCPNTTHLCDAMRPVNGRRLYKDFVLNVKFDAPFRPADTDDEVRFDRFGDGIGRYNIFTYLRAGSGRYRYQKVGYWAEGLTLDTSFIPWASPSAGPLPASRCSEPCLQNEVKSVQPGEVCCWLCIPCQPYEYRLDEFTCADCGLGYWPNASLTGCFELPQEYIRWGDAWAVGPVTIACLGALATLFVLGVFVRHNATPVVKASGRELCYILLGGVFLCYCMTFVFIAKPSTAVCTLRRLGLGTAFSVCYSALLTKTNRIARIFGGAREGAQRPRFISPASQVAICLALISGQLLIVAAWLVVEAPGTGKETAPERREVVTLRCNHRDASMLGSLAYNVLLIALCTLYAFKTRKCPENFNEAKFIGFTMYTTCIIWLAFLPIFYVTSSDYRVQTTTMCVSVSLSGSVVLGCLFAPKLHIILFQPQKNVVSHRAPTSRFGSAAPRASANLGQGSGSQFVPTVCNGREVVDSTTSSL

[3] = target: Metabotropic glutamate receptor 3 (Rattus norvegicus) (UniProt P31422); test: Negative allosteric modulation of rat mGlu3 receptor transfected in human TREX cells after 2.5 mins by calcium mobilization assay relative to glutamate; assay type: functional, cell-based; set-up: concentration or dose not given beside the values
Chain of Metabotropic glutamate receptor 3 (Rattus norvegicus) (P31422 23-879 limits assumed): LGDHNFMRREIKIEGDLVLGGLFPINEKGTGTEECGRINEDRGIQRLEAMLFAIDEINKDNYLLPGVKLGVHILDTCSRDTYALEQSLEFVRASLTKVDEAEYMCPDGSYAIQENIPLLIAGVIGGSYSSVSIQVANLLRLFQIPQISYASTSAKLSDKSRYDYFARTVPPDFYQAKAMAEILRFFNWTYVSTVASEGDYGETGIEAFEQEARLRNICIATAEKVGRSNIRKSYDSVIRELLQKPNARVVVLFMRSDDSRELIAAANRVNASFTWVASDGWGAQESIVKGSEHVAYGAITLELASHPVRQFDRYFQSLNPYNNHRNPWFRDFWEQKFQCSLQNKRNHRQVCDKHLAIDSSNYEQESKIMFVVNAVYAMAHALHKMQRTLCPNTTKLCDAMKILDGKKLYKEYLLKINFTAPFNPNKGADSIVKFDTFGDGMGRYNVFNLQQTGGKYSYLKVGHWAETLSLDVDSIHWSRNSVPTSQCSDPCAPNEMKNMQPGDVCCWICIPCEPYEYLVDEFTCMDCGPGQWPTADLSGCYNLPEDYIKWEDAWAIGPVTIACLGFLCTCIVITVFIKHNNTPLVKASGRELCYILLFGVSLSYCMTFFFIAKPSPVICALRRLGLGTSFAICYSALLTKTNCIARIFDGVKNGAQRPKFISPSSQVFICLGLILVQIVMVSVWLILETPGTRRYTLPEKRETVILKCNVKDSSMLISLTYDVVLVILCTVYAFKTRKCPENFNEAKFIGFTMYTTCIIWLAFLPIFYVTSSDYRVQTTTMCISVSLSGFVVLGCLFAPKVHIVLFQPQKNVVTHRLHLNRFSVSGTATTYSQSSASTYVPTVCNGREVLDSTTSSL

Homo sapiens = organism: Homo sapiens; test: Selectivity ratio of IC50 for human mGlu2 receptor to IC50 for human mGlu3 receptor
Liver microsomes = test: Metabolic stability in human liver microsomes at 1 uM; assay type: ADME, Microsome
[4] = target: Metabotropic glutamate receptor 3 (Rattus norvegicus) (UniProt P31422); test: Negative allosteric modulation of rat mGlu3 receptor transfected in human TREX cells assessed as non-competitive decrease in glutamate EC80; assay type: cell-based
[5] = target: Metabotropic glutamate receptor 3 (Rattus norvegicus) (UniProt P31422); test: Negative allosteric modulation of rat mGlu3 receptor transfected in human TREX cells assessed as inhibition of glutamate/LY379268-induced calcium mobilization; assay type: functional, cell-based
[6] = target: 5-hydroxytryptamine receptor 2B (Homo sapiens) (UniProt P41595); test: Binding affinity to human 5-HT2B receptor at 10 uM by radioligand displacement assay relative to control
[7] = target: Sodium-dependent dopamine transporter (Homo sapiens) (UniProt Q01959); test: Binding affinity to human DAT at 10 uM by radioligand displacement assay relative to control
Chain of Sodium-dependent dopamine transporter (Homo sapiens) (Q01959 whole entry): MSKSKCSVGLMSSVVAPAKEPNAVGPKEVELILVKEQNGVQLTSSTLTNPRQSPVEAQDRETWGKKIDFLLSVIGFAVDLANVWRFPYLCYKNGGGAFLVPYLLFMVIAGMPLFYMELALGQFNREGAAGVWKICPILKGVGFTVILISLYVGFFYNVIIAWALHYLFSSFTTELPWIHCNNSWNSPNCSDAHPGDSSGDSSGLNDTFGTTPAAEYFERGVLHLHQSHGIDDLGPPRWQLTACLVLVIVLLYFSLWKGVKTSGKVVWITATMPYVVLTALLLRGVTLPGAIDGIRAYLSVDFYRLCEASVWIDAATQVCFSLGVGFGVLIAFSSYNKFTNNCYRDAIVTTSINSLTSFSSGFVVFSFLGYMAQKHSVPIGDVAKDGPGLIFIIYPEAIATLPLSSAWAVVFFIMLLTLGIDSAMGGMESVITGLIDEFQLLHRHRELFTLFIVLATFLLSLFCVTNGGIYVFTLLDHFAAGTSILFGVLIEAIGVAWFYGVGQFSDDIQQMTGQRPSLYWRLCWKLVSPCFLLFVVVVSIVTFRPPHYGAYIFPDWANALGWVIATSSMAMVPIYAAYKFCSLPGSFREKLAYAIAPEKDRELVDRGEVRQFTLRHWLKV

Plasma [8] = test: Plasma protein binding in mouse at 5 uM after 4 hrs by LC/MS/MS analysis; assay type: ADME, cell-free
[9] = Solubility of the compound in PBS; assay type: physicochemical; settings: buffer
Plasma [10] = test: Fraction unbound in human plasma at 5 uM after 4 hrs by LC/MS/MS analysis; assay type: ADME, cell-free
Plasma [11] = test: Plasma protein binding in human at 5 uM after 4 hrs by LC/MS/MS analysis; assay type: ADME, cell-free
Plasma [12] = test: Fraction unbound in mouse plasma at 5 uM after 4 hrs by LC/MS/MS analysis; assay type: ADME, cell-free
Plasma [13] = test: Fraction unbound in rat plasma at 5 uM after 4 hrs by LC/MS/MS analysis; assay type: ADME, cell-free
Cytochrome P450 2D6 = Cytochrome P450 2D6 (Homo sapiens, UniProt P10635); test: Inhibition of CYP2D6 in human liver microsomes using dextromethorphan as substrate incubated for 15 mins prior to NADPH addition measured after 8 mins by LC/MS/MS analysis; assay type: ADME, Microsome
Cytochrome P450 2C9 = Cytochrome P450 2C9 (Homo sapiens, UniProt P11712); test: Inhibition of CYP2C9 in human liver microsomes using diclofenac as substrate incubated for 15 mins prior to NADPH addition measured after 8 mins by LC/MS/MS analysis; assay type: ADME, Microsome
Chain of Cytochrome P450 2C9 (P11712 whole entry): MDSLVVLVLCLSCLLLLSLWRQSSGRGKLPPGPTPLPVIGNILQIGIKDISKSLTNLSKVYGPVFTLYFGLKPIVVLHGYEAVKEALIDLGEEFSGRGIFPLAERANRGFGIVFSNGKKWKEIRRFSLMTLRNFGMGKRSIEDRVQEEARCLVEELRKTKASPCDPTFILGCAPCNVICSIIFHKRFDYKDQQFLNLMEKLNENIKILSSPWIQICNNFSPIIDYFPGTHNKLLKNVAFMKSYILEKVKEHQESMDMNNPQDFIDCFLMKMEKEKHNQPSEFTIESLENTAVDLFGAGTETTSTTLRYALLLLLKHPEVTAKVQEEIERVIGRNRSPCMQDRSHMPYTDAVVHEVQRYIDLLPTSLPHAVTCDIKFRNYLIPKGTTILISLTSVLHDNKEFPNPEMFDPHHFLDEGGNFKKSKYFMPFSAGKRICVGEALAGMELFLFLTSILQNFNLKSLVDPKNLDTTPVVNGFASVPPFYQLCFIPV

Cytochrome P450 1A2 = target: T1, Cytochrome P450 1A2 (Homo sapiens, UniProt P05177); test: Inhibition of CYP1A2 in human liver microsomes using phenacetin as substrate incubated for 15 mins prior to NADPH addition measured after 8 mins by LC/MS/MS analysis; assay type: ADME, Microsome
T1 sequence (P05177 whole entry): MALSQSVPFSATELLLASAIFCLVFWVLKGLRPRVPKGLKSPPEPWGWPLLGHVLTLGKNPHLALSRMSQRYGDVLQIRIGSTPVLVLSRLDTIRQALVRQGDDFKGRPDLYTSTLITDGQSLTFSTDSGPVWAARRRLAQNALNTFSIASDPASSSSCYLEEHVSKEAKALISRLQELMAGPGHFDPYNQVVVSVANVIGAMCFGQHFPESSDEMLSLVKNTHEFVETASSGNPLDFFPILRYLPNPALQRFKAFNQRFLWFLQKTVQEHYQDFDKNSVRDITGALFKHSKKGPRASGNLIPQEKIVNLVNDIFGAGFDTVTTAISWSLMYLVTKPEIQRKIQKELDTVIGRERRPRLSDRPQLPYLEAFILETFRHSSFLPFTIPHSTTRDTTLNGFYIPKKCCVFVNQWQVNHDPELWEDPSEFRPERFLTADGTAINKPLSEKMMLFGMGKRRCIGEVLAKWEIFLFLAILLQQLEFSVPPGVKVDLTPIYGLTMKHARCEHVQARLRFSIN

[14] = target: Metabotropic glutamate receptor 7 (Homo sapiens) (UniProt Q14831); test: Negative allosteric modulation of mGlu7 receptor (unknown origin) up to 30 uM
Chain of Metabotropic glutamate receptor 7 (Homo sapiens) (Q14831 whole entry): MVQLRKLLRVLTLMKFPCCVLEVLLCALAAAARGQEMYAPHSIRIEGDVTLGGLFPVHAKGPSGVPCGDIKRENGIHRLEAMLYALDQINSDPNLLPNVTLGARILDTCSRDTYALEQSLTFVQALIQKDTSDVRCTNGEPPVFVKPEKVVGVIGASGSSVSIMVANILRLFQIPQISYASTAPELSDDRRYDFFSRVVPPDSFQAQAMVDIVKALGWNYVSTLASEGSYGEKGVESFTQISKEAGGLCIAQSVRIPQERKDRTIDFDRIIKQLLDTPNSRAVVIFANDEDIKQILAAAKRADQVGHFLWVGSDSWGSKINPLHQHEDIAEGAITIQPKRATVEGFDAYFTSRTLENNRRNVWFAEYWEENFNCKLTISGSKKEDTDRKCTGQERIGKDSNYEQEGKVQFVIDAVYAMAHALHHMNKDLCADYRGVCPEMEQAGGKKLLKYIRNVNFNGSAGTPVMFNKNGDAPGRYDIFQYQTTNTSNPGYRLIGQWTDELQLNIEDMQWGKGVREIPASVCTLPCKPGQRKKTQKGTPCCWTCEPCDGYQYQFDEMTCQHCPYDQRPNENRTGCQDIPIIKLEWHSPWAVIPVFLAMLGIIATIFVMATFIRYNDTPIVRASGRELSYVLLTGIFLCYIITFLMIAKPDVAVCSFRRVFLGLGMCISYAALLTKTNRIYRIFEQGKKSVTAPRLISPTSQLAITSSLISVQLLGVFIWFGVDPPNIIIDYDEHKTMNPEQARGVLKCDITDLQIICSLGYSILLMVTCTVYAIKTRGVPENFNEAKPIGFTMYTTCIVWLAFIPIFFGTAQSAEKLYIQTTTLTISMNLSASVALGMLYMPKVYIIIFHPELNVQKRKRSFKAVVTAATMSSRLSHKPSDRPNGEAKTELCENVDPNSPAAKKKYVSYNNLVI

[15] = target: Metabotropic glutamate receptor 1 (Homo sapiens) (UniProt Q13255); test: Negative allosteric modulation of mGlu1 receptor (unknown origin) up to 30 uM
[16] = target: Metabotropic glutamate receptor 4 (Homo sapiens) (UniProt Q14833); test: Negative allosteric modulation of mGlu4 receptor (unknown origin) up to 30 uM
[17] = target: Metabotropic glutamate receptor 5 (Homo sapiens) (UniProt P41594); test: Negative allosteric modulation of mGlu5 receptor (unknown origin) up to 30 uM
[18] = target: Metabotropic glutamate receptor 6 (Homo sapiens) (UniProt O15303); test: Negative allosteric modulation of mGlu6 receptor (unknown origin) up to 30 uM
[19] = target: Metabotropic glutamate receptor 8 (Homo sapiens) (UniProt O00222); test: Negative allosteric modulation of mGlu8 receptor (unknown origin) up to 30 uM

## COc1ccc(-c2nnc(-c3ccc(C(=O)N4CCC[C@@H](CO)C4)cc3)o2)cc1
[1]; read-out: IC50
  IC50: > 10 µM

## O=C(c1ccc(C#Cc2ccc(OC(F)(F)F)cc2)cc1)N1CCC[C@@H](CO)C1
[1]; read-out: IC50
  IC50: > 10 µM

## COc1ccc(C#Cc2ccc(C(=O)N3CCC[C@@H](CO)C3)cc2)cn1
[1]; read-out: IC50
  IC50: > 10 µM

## COc1ccc(C#Cc2ccc(C(=O)N3CC[C@H](O)C3)cc2)cc1
[1]; read-out: pIC50 (converted)
  IC50: 27.5 µM
[2]
  IC50: > 30 µM

## COc1ccc(C#Cc2ccc(C(=O)N3CCC[C@@H](CO)C3)cc2)cc1
[1]; read-out: IC50
  IC50: > 10 µM

## CCOc1ccc(C#Cc2ccc(C(=O)N3CCC[C@@H](CO)C3)cc2)cc1
[1]; read-out: IC50
  IC50: > 10 µM

## COc1ccc(C#Cc2ccc(C(=O)N3CCCC(O)C3)cc2)cc1 (racemic)
[1]; read-out: IC50
  IC50: 0.76 µM
[3]
  Activity: 0.4%
[2]
  IC50: > 30 µM

## COc1ccc(C#Cc2ccc(C(=O)N3CCC[C@@H](CO)C3)cc2)c(F)c1
[1]; read-out: IC50
  IC50: > 10 µM

## O=C(c1ccc(C#Cc2ccc3c(c2)OCCO3)cc1)N1CCC[C@@H](CO)C1
[1]; read-out: IC50
  IC50: > 10 µM

## COc1ccc(C#Cc2ccc(C(=O)N3CCC(CO)C3)cc2)cc1 (stereo unspecified)
[1]; read-out: pIC50 (converted)
  IC50: 7.59 µM
[3]
  Activity: 0%
[2]
  IC50: > 30 µM

## O=C(c1ccc(C#Cc2ccc(O)cc2)cc1)N1CCC[C@@H](CO)C1
[1]; read-out: IC50
  IC50: > 10 µM

## O=C(c1ccc(C#Cc2ccc(Oc3ccccc3)cc2)cc1)N1CCC[C@@H](CO)C1
[1]; read-out: IC50
  IC50: > 10 µM

## COc1ccc(C#Cc2ccc(C(=O)N3CCC[C@@H](O)C3)cc2F)cc1
[1]; read-out: IC50
  IC50: 0.456 µM
[3]
  Activity: 1.64%
[2]
  IC50: > 30 µM

## COc1ccc(C#Cc2ccc(C(=O)N3CC[C@@H](O)C3)cc2)cc1
[1]; read-out: pIC50 (converted)
  IC50: 10.2 µM
[3]
  Activity: 0%
[2]
  IC50: > 30 µM

## COc1ccc(C#Cc2ccc(C(=O)N3CCC[C@@H](CO)C3)cc2)c(F)c1F
[1]; read-out: IC50
  IC50: > 10 µM

## CSc1ccc(C#Cc2ccc(C(=O)N3CCC[C@@H](CO)C3)cc2)cc1
[1]; read-out: IC50
  IC50: > 10 µM

## COc1ccc(C#Cc2ccc(C(=O)N3CC4CCC(O)C4C3)cc2)cc1 (stereo unspecified)
[1]; read-out: pIC50 (converted)
  IC50: 5.5 µM
[3]
  Activity: 1.7%
[2]
  IC50: > 30 µM

## COc1ccc(C#Cc2ccc(C(=O)N3CCC[C@H](O)C3)cc2)cc1
[1]; read-out: IC50
  IC50: 1.1 µM
[3]
  Activity: 1.7%
[2]
  IC50: > 30 µM

## O=C(c1ccc(C#Cc2ccc3c(c2)OCO3)cc1)N1CCC[C@@H](CO)C1
[1]; read-out: IC50
  IC50: > 10 µM

## COc1ccc(C#Cc2ccc(C(=O)N3CCC[C@@H](CO)C3)cc2)cc1F
[1]; read-out: IC50
  IC50: > 10 µM

## CC(C)Oc1ccc(C#Cc2ccc(C(=O)N3CCC[C@@H](CO)C3)cc2)cc1
[1]; read-out: IC50
  IC50: > 10 µM

## COc1ccc(C#Cc2ccc(C(=O)N3CCCC(OC)C3)cc2)cc1 (stereo unspecified)
[1]; read-out: pIC50 (converted)
  IC50: 5.5 µM
[3]
  Activity: 0%
[2]
  IC50: > 30 µM

## [2H]C([2H])([2H])Oc1ccc(C#Cc2ccc(C(=O)N3CCC[C@@H](O)C3)c(F)c2)cc1
[1]; read-out: IC50
  IC50: 0.45 µM

## Clc1ccc(CN[C@H]2CCN(c3ncc(Br)cn3)C2)c(Cl)c1
Homo sapiens
  Ratio IC50: 4

## COc1ccc(C#Cc2ccc(C(=O)N3CCC[C@@H](O)C3)c(F)c2)cc1
Liver microsomes
  Stability: Unstable
[4]
  Activity: Active
[5]
  Activity: Active
[6]
  inhibition: 74%
[7]
  inhibition: 71%
Plasma [8]
  PPB: 97%
[9]
  solubility: 7.8 µM (≈ 2.76 µg/mL)
Plasma [10]
  Fu: 0.03
Plasma [11]
  PPB: 97%
Plasma [12]
  Fu: 0.027
Plasma [13]
  Fu: 0.005
Cytochrome P450 2D6
  IC50: > 30 µM
Cytochrome P450 2C9
  IC50: > 30 µM
Cytochrome P450 1A2
  IC50: > 30 µM
[1]; read-out: IC50
  IC50: 0.593 µM
[1]; read-out: pIC50 (converted)
  IC50: 0.603 µM
[14]
  Activity: inactive
[3]
  Activity: 1.9%
[2]
  IC50: > 30 µM
[15]
  Activity: inactive
[16]
  Activity: inactive
[17]
  Activity: inactive
[18]
  Activity: inactive
[19]
  Activity: inactive

## COc1ccc(C#Cc2ccc(C(=O)N3CCCC(C)(O)C3)cc2)cc1 (stereo unspecified)
[1]; read-out: IC50
  IC50: 0.711 µM
[3]
  Activity: -0.13%
[2]
  IC50: > 30 µM

## COc1ccc(C#Cc2ccc(C(=O)N3CCC[C@@H](O)C3)cc2)cc1
[1]; read-out: IC50
  IC50: 0.65 µM
[3]
  Activity: 2%
[2]
  IC50: > 30 µM

## COc1ccc(C#Cc2ccc(C(=O)N3CC4CCC(=O)C4C3)cc2)cc1 (stereo unspecified)
[1]; read-out: pIC50 (converted)
  IC50: 2.75 µM
[3]
  Activity: 1.6%
[2]
  IC50: > 30 µM

## [2H]C([2H])([2H])Oc1ccc(C#Cc2ccc(C(=O)N3CCC[C@@H](O)C3)cc2)cc1
[1]; read-out: IC50
  IC50: 0.31 µM

## COc1ccc(C#Cc2ccc(C(=O)NC(C)CO)cc2)cc1 (stereo unspecified)
[1]; read-out: pIC50 (converted)
  IC50: 7.59 µM
[3]
  Activity: 1.6%
[2]
  IC50: > 30 µM
